Experimental data as given in patent publication US9505786B2, “Substituted annulated triazines and use thereof” (BAYER INTELLECTUAL PROPERTY GMBH, priority 2012, dated 2016).

Columns and labels:
aorta rings = assay: Vasorelaxant effect in vitro (phenylephrine-contracted aorta rings); settings: Oryctolagus cuniculus, rabbit aorta rings, organ bath, phenylephrine contraction; read-out: IC50 (concentration needed to reduce the phenylephrine contraction by 50%)
Description: B-1. Vasorelaxant Effect In Vitro
Rabbits are stunned by a blow to the neck and exsanguinated. The aorta is removed, freed from adhering tissue and divided into rings of a width of 1.5 mm. The rings are placed individually under an initial tension in 5 ml organ baths with Krebs-Henseleit solution which is at 37° C., is gassed with carbogen and has the following composition (in each case mM): sodium chloride: 119; potassium chloride: 4.8; calcium chloride dihydrate: 1; magnesium sulphate heptahydrate: 1.4; potassium dihydrogenphosphate: 1.2; sodium bicarbonate: 25; glucose: 10. The contractile force is determined with Statham UC2 cells, amplified and digitalized using A/D transducers (DAS-1802 HC, Keithley Instruments Munich), and recorded in parallel on linear recorders.
To produce a contraction, phenylephrine is added to the bath cumulatively in increasing concentration. After several control cycles, the substance to be investigated is added in each further run in increasing dosage in each case, and the height of the contraction achieved is compared with the height of the contraction reached in the last preceding run. This is used to calculate the concentration needed to reduce the magnitude of the control value by 50% (IC50 value). The standard administration volume is 5 μl; the DMSO content in the bath solution corresponds to 0.1%.

[1] = biological target: human phosphodiesterase 5 (PDE 5) (Homo sapiens (Human), UniProt O76074); assay: Inhibition of human phosphodiesterase 5 (PDE 5), SPA assay; format: biochemical; settings: PDE 5 preparation from human platelets, [8-3H] cGMP substrate
Procedure, shortened: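 Enzyme partially purified from human platelets by Mono Q chromatography; [8-3H]cGMP substrate (0.025 μCi per well), enzyme diluted to keep conversion below 70%. Compounds 4 μM to 0.0018 μM final, 60 min at room temperature in Tris pH 7.5/MgCl2/EDTA; yttrium SPA bead read-out; IC50 from concentration–inhibition plot.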

[2] = test system: recombinant guanylate cyclase reporter cell line; assay: Effect on a recombinant guanylate cyclase reporter cell line; format: cell-based
Description: B-2. Effect on a Recombinant Guanylate Cyclase Reporter Cell Line
The cellular activity of the compounds according to the invention is determined using a recombinant guanylate cyclase reporter cell line, as described in F. Wunder et al., Anal. Biochem. 339, 104-112 (2005).

Compound | IC50 (aorta rings) [nM] | IC50 [1] [nM] | MEC (minimum effective concentration) [2] [nM]
Cn1nc(C(F)(F)F)cc1-c1nc(-c2nn(Cc3ccccc3F)c3ncccc23)nc2c1C(C)(C)C(=O)N2 [Example 41, 2-[1-(2-Fluorobenzyl)-1H-pyrazolo[3,4-b]pyridin-3-yl]-5,5-dimethyl-4-[1-methyl-3-(trifluoromethyl)-1H-pyrazol-5-yl]-5,7-dihydro-6H-pyrrolo[2,3-d]pyrimidin-6-one] | 4210 | 1600 | 300
Cc1cc(-c2nc(-c3nn(Cc4ccccc4F)c4ncccc34)nc3c2C(C)(C)C(=O)N3)n(C)n1 [Example 38, 4-(1,3-Dimethyl-1H-pyrazol-5-yl)-2-[1-(2-fluorobenzyl)-1H-pyrazolo[3,4-b]pyridin-3-yl]-5,5-dimethyl-5,7-dihydro-6H-pyrrolo[2,3-d]pyrimidin-6-one] | 91 | 690 | 30
Cc1ccc(Cn2nc(-c3nnc4c(n3)NC(=O)C4(C)C)c3cc(F)cnc32)c(F)c1 [Example 10, 3-[5-Fluoro-1-(2-fluoro-4-methylbenzyl)-1H-pyrazolo[3,4-b]pyridin-3-yl]-7,7-dimethyl-5,7-dihydro-6H-pyrrolo[2,3-e][1,2,4]triazin-6-one] | 276 | 15 | 300
C=CCC1(C)C(=O)Nc2nc(-c3nn(Cc4ccccc4F)c4ncc(F)cc34)nnc21 (racemic) [Example 51, (rac) 7-Allyl-3-[5-fluoro-1-(2-fluorobenzyl)-1H-pyrazolo[3,4-b]pyridin-3-yl]-7-methyl-5,7-dihydro-6H-pyrrolo[2,3-e][1,2,4]triazin-6-one] | 413 | 140 | 30
CC1(C)C(=O)Nc2nc(-c3nn(Cc4ccccc4F)c4ncccc34)nc(CCC3CC3)c21 [Example 17, 4-(2-Cyclopropylethyl)-2-[1-(2-fluorobenzyl)-1H-pyrazolo[3,4-b]pyridin-3-yl]-5,5-dimethyl-5,7-dihydro-6H-pyrrolo[2,3-d]pyrimidin-6-one] | 2380 | 260 | 100
CC1(c2nncs2)C(=O)Nc2nc(-c3nn(Cc4ccccc4F)c4ncccc34)ncc21 (racemic) [Example 34, (rac) 2-[1-(2-Fluorobenzyl)-1H-pyrazolo[3,4-b]pyridin-3-yl]-5-methyl-5-(1,3,4-thiadiazol-2-yl)-5,7-dihydro-6H-pyrrolo[2,3-d]pyrimidin-6-one] | 218 | 1200 | 30
CC1(C)C(=O)Nc2nc(-c3nn(Cc4ccccc4F)c4ncc(F)cc34)nc(CNCC(F)(F)F)c21 [Example 57, 2-[5-Fluoro-1-(2-fluorobenzyl)-1H-pyrazolo[3,4-b]pyridin-3-yl]-5,5-dimethyl-4-{[(2,2,2-trifluoroethyl)amino]methyl}-5,7-dihydro-6H-pyrrolo[2,3-d]pyrimidin-6-one] | 422 | 320 | 30
Cc1ncc(-c2nc(-c3nn(Cc4ccccc4F)c4ncccc34)nc3c2C(C)(C)C(=O)N3)s1 [Example 35, 2-[1-(2-Fluorobenzyl)-1H-pyrazolo[3,4-b]pyridin-3-yl]-5,5-dimethyl-4-(2-methyl-1,3-thiazol-5-yl)-5,7-dihydro-6H-pyrrolo[2,3-d]pyrimidin-6-one] | 496 | 120 | 30
CC1(C)C(=O)Nc2nc(-c3nn(Cc4ccccc4F)c4ncc(F)cc34)nc(CCC(F)(F)F)c21 [Example 58, 2-[5-Fluoro-1-(2-fluorobenzyl)-1H-pyrazolo[3,4-b]pyridin-3-yl]-5,5-dimethyl-4-(3,3,3-trifluoropropyl)-5,7-dihydro-6H-pyrrolo[2,3-d]pyrimidin-6-one] | 9800 | 660 | 300
